The source of these data is ChEMBL document CHEMBL5126617, “Application of Degradation of Cyclic-AMP Response Element Binding Protein for the Potential Treatment of Cancer” (ACS Med Chem Lett, 2022).

One experiment deals with LNCaP. Briefly: Antiproliferative activity against human LNCaP cells assessed as reduction in cell viability by CellTitre-Glo assay. The format is functional, cell-based.
The target in experiment [1] is Protein cereblon/Histone acetyltransferase p300 (Homo sapiens) (UniProt Q09472+Q96SW2). Briefly: Protac activity at E3 ubiquitin ligase/P300 in human LNcaP cells assessed as degradation of P300 at 10 nM by immunoblotting analysis relative to control. In kind it is cell-based.
Protein cereblon/Histone acetyltransferase p300 (Homo sapiens), sequence (Q09472 2-2414 limits assumed): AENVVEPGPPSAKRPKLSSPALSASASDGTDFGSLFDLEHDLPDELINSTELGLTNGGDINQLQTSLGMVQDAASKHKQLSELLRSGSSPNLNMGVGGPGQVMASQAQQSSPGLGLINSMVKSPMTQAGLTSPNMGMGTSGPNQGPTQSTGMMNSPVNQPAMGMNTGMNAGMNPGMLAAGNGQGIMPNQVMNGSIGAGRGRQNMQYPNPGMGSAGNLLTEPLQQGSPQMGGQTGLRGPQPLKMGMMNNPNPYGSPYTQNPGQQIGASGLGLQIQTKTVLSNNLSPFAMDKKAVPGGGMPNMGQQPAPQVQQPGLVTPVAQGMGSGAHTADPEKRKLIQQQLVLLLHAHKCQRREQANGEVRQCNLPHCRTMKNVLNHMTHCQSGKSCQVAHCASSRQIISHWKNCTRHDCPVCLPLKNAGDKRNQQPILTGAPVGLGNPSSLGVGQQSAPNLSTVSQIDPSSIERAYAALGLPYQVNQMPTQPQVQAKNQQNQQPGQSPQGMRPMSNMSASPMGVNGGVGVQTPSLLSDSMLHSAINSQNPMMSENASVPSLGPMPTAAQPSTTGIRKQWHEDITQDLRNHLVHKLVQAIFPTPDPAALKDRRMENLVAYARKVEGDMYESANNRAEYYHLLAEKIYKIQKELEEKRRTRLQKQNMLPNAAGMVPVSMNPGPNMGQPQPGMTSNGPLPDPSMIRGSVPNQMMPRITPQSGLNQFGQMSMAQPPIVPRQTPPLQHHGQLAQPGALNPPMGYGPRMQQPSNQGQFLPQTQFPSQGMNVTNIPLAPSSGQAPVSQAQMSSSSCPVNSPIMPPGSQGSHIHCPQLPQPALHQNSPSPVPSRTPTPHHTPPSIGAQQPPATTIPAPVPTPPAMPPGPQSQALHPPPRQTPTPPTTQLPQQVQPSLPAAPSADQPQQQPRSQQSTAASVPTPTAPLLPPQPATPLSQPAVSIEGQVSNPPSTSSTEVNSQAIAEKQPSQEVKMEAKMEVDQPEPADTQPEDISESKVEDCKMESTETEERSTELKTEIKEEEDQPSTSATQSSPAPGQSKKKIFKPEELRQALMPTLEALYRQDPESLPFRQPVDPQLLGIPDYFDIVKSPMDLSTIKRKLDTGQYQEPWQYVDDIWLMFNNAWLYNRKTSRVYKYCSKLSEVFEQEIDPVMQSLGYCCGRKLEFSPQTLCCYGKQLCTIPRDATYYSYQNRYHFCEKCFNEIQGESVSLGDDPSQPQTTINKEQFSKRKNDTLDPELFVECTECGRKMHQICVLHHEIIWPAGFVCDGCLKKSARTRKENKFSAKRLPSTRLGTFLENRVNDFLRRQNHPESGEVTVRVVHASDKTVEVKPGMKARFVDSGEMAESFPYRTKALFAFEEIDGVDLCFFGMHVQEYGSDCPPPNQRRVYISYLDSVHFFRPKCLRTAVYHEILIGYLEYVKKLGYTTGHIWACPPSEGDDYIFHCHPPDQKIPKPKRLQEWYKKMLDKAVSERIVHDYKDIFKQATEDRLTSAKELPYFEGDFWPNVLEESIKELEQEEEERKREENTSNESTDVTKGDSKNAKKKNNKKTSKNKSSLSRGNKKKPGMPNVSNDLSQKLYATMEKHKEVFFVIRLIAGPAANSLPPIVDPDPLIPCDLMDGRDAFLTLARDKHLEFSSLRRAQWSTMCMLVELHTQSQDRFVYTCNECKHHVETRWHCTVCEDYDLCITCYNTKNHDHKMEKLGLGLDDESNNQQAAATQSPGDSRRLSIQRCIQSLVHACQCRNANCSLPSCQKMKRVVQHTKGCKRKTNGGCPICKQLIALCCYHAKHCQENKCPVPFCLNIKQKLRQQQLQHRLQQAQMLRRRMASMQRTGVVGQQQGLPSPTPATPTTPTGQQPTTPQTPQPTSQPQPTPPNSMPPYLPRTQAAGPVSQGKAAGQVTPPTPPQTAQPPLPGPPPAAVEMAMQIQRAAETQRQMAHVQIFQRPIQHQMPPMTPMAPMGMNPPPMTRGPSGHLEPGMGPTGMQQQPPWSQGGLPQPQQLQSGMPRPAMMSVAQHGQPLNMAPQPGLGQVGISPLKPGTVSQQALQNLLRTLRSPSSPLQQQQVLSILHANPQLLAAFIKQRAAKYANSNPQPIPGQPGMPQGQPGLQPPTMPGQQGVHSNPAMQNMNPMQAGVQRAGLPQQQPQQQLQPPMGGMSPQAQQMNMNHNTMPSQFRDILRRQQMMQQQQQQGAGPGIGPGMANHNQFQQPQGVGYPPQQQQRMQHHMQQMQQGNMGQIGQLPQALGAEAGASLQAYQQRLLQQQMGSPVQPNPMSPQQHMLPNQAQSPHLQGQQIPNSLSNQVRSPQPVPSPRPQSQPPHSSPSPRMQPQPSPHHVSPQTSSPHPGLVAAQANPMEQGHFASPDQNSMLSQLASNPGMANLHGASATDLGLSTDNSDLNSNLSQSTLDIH
Protein cereblon/Histone acetyltransferase p300 (Homo sapiens), sequence (Q96SW2 whole entry partner): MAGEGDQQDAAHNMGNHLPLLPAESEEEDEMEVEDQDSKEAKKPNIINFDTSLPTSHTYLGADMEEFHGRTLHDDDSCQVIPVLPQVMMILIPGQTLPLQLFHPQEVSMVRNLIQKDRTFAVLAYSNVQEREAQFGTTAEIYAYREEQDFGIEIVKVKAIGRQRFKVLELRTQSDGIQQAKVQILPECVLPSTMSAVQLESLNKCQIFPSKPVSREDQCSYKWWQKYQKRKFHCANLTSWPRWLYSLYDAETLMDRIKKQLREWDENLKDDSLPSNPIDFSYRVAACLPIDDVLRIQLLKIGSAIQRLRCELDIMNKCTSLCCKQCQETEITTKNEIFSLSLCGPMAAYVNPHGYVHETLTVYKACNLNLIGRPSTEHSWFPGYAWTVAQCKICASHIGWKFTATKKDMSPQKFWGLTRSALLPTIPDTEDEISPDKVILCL

As for `CC(=O)N1CCc2c(c(N3CCCc4cc(-c5cnn(C)c5)c(C(F)F)cc43)nn2C2CCN(C(=O)CCCCCNc3cccc4c3C(=O)N(C3CCC(=O)NC3=O)C4=O)CC2)C1` (centres undefined), the IC50 in the experiment with LNCaP amounted to 44.5 nM. In addition, the Activity in experiment [1] is less than 50%.

Consider `CC(=O)N1CCc2c(c(N3CCCc4cc(-c5cnn(C)c5)c(C(F)F)cc43)nn2C2CCN(C(=O)CCCN3CCN(Cc4ccc5c(c4)n(C)c(=O)n5C4CCC(=O)NC4=O)CC3)CC2)C1` (centres undefined), for which the IC50 in the experiment with LNCaP is 0.3 nM. Further, the Activity in experiment [1] is more than 80%.

As to `CC(=O)N1CCc2c(c(N3CCCc4cc(-c5cnn(C)c5)c(C(F)F)cc43)nn2C2CCN(CCN3CCN(C#Cc4ccc5c(c4)n(C)c(=O)n5C4CCC(=O)NC4=O)CC3)CC2)C1` (centres undefined), the IC50 in the experiment on LNCaP is 0.1 nM. The Activity in experiment [1] is more than 80%.

In the case of `CC(=O)N1CCc2c(c(N3CCCc4cc(-c5cnn(C)c5)c(C(F)F)cc43)nn2C2CCN(CCN3CCC(CCc4ccc5c(c4)n(C)c(=O)n5C4CCC(=O)NC4=O)CC3)CC2)C1` (centres undefined), the IC50 in the experiment with LNCaP worked out at 0.3 nM. Also, the Activity in experiment [1] is more than 80%.

As to `CC(=O)N1CCc2c(c(N3CCCc4cc(-c5cnn(C)c5)c(C(F)F)cc43)nn2C2CCN(CCCC3CCN(c4cccc5c4C(=O)N(C4CCC(=O)NC4=O)C5=O)CC3)CC2)C1` (centres undefined), in the experiment with LNCaP, the IC50 was determined as 0.8 nM. The Activity in experiment [1] is more than 80%.

On to `CNC(=O)N1CCc2c(c(N3CCCc4cc(-c5cnn(C)c5)c(C(F)F)cc43)nn2C2CCN(C(=O)CCCCCCCNc3cccc4c3C(=O)N(C3CCC(=O)NC3=O)C4=O)CC2)C1` (centres undefined), for which the IC50 in the experiment with LNCaP was 0.8 nM. Besides, the Activity in experiment [1] was more than 80%.

`CC(=O)N1CCc2c(c(N3CCCc4cc(-c5cnn(C)c5)c(C(F)F)cc43)nn2C2CCN(C(=O)CCCCCCCNc3cccc4c3C(=O)N(C3CCC(=O)NC3=O)C4=O)CC2)C1` (centres undefined): in the experiment with LNCaP, the IC50 is 0.7 nM. In addition, in experiment [1], the Activity was more than 80%.

For the compound `CC(=O)N1CCc2c(c(N3CCCc4cc(-c5cnn(C)c5)c(C(F)F)cc43)nn2C2CCN(CCN3CCOC(CNc4cccc5c4C(=O)N(C4CCC(=O)NC4=O)C5=O)C3)CC2)C1` (centres undefined), the IC50 in the experiment on LNCaP was found to be 0.1 nM. Besides, the Activity in experiment [1] is more than 80%.

Turning to `CNC(=O)N1CCc2c(c(N3CCCc4cc(-c5cnn(C)c5)c(C(F)F)cc43)nn2C2CCN(C(=O)CCCCCNc3cccc4c3C(=O)N(C3CCC(=O)NC3=O)C4=O)CC2)C1` (centres undefined), in the experiment with LNCaP, the IC50 amounted to 0.4 nM. In experiment [1], the Activity is more than 80%.

With `CNC(=O)N1CCc2c(c(N3CCCc4cc(-c5cnn(C)c5)c(C(F)F)cc43)nn2C2CCN(C(=O)CCCCCn3c(=O)n(C4CCC(=O)NC4=O)c4ccccc43)CC2)C1` (centres undefined), the IC50 in the experiment on LNCaP came to 0.9 nM. In addition, the Activity in experiment [1] is more than 80%.

With `CC(=O)N1CCc2c(c(N3CCCc4cc(-c5cnn(C)c5)c(C(F)F)cc43)nn2C2CCN(C(=O)CN3CCC(CCc4cccc5c4n(C)c(=O)n5C4CCC(=O)NC4=O)CC3)CC2)C1` (centres undefined), the IC50 in the experiment on LNCaP amounted to 33.1 nM. Further, the Activity in experiment [1] was less than 20%.

As for `CC(=O)N1CCc2c(c(N3CCCc4cc(-c5cnn(C)c5)c(C(F)F)cc43)nn2C2CCN(CCN3CCC(CCc4cccc5c4n(C)c(=O)n5C4CCC(=O)NC4=O)CC3)CC2)C1` (centres undefined), the IC50 in the experiment with LNCaP is 0.1 nM. Moreover, the Activity in experiment [1] was more than 80%.
